According to patent publication US8247224B2, “Recombinant construct for detection of halogenated aromatic hydrocarbons” (National Health Research Institutes, priority 2010, dated 2012):

Target: T1, AhR (Rattus norvegicus, UniProt P41738)
T1 construct: introducing a recombinant construct as described above into a host cell that expresses AhR; endogenous in cells; host or cells: H-4-II-E cells infected with the AdEasy-4XDRE-TATA-Luc reporter adenovirus
T1 sequence (P41738 10-853): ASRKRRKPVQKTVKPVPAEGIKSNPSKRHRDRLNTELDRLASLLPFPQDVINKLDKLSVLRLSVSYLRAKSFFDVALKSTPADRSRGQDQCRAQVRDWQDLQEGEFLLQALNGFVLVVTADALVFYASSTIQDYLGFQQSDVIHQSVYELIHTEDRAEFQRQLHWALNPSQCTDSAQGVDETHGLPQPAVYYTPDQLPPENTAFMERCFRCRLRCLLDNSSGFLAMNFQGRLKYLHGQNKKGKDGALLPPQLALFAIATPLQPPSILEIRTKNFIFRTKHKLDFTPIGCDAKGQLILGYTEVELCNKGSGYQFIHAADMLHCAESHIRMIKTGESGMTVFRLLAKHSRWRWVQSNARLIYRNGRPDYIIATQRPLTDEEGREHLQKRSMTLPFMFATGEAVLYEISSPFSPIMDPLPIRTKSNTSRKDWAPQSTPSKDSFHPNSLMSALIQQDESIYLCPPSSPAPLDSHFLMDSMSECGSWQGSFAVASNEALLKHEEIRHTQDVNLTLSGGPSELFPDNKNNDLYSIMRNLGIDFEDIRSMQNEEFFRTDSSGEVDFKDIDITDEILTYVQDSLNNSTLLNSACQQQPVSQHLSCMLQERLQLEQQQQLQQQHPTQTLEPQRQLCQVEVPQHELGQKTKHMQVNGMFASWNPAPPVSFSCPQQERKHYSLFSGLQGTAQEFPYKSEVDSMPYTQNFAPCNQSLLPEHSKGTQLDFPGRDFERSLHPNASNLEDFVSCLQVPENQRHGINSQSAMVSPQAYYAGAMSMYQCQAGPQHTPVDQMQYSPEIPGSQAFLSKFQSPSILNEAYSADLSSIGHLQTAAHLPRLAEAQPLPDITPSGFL
Test: Luciferase activity of H-4-II-E cells infected with AdEasy-4XDRE-TATA-Luc and treated with TCDD
Format: cell-based
Settings: AdEasy-4XDRE-TATA-Luc at MOI of one particles/cell for 16 hours, TCDD for 24 hours, luciferase activity (RLU), FIG. 6
Text: As known in the art, the action of the HAH compounds is mediated through a cytosolic transcription factor, called the aryl hydrocarbon receptor (AhR). After binding of the ligand (HAH compounds), the resulted AhR complex binds to specific DNA sequences i.e. DREs, and then results in transcriptional activation of the adjacent responsive genes. The consensus sequence of the DREs is 5′-TNGCGTG-3′ where N means any nucleotide of A, T, G and C.
H-4-II-E cells (Bioresources Collection and Research Center (BCRC), Food Industry Research and Development Institute (FIRDI), Hsinchu, Taiwan) were seeded on 96-well plates at a density of 2×10^4 cells/well in culture medium (80% Minimum essential medium Eagle with 0.1 mM non-essential amino acids, Earle's BSS, 10% fetal bovine serum and 10% calf serum) and cultured overnight in a humidified atmosphere containing 5% CO2 at 37° C. Subsequently, the cells were incubated with AdEasy-4XDRE-TATA-Luc as obtained in Example 1 at a multiplicity of infection (MOI) of one particles/cell for 16 hours. […] Luciferase activity was measured by Luciferase Assay System (Promega, Madison, Wis., USA) according to the standard protocol as provided using the programmed microplate luminometer MicroLumatPlus LB96V (EG&G Berthold, Germany). The luciferase activity was expressed as relative light units (RLU).

Structure (SMILES): Clc1cc2c(cc1Cl)Oc1cc(Cl)c(Cl)cc1O2 [TCDD, 2,3,7,8-tetrachlorodibenzo-p-dioxin]
- concentrations between which the luciferase response shows a steep slope: 10^−12 to 10^−10 M
- detection limit: around 10^−12 M
